Results from patent US20090227670A1, “PHARMACEUTICAL COMPOSITIONS COMPRISING FLAVONOIDS AND MENTHOL” (priority 2002, published 2009).

Key:
Type in all cases: cell-based, human rhinovirus
rhinovirus T39 = assay: rhinovirus titration on WISH cell monolayers in presence or absence of menthol; details: menthol dilution 1:800; virus dilution range 10^2-10^3; WISH cells (FIG. 2A)
Experimental: Rhinovirus 1A, rhinovirus 15 and rhinovirus 39 were titrated according to the tetrazolium salt (MTS)-method (Berg et al., 1990) (Hansen et al., 1989)). WISH cells were seeded in a micro tray at 3000 cells per well and incubated at 37° C., 5% CO2 overnight; the following morning the medium was replaced with 10-fold dilutions of either rhinovirus 1A, rhinovirus 15 or rhinovirus 39, respectively, in fresh medium and the trays were incubated 4-5 days at 33° C.; a microscopical examination confirmed that the CytoPathogenic Effect (CPE) was fully developed (CPE equal to 100%). The minimal amount of virus (i.e.: the highest dilution of the virus in question) which produced 100% destruction was used as “challenge virus” in the subsequent experiments. To quantitate the CPE in terms of % destruction, MTS (Berg and Owen, 2003) was added to all cultures and after 3 h incubation at 37° C. (without CO2) the trays were read in a scanner as previously described (Berg et al., 1990). Control cell cultures, that were not infected with virus, were included in the experiment; the latter gave the highest OD as these cells were not damaged; depending on the concentration of virus added to the different wells, the OD492 varied, accordingly: 100% CPE yielded a low OD (<0.200); 0% CPE corresponding to no infection at all (controls cell) gave a high OD (>1.200). […]

RHV 1A, 17, and 39A = assay: rhinovirus titration in presence of menthol, all three rhinoviruses employed
Experimental: WISH cells were seeded in a micro tray at 3000 cells per well and incubated at 37° C., 5% CO2 overnight; the following morning the medium was replaced with 10-fold dilutions of either rhinovirus 1A, […], respectively, in fresh medium and the trays were incubated 4-5 days at 33° C.; a microscopical examination confirmed that the CytoPathogenic Effect (CPE) was fully developed (CPE equal to 100%). The minimal amount of virus (i.e.: the highest dilution of the virus in question) which produced 100% destruction was used as “challenge virus” in the subsequent experiments. To quantitate the CPE in terms of % destruction, MTS (Berg and Owen, 2003) was added to all cultures and after 3 h incubation at 37° C. (without CO2) the trays were read in a scanner as previously described (Berg et al., 1990). Control cell cultures, that were not infected with virus, were included in the experiment; the latter gave the highest OD as these cells were not damaged; depending on the concentration of virus added to the different wells, the OD492 varied, accordingly: 100% CPE yielded a low OD (<0.200); 0% CPE corresponding to no infection at all (controls cell) gave a high OD (>1.200). […]

rhinovirus-T39 = assay: antiviral activity of HuIFN-α versus rhinovirus in presence and absence of menthol (MTS method, WISH cells); details: menthol 1:800
Experimental: Rhinovirus 1A, rhinovirus 15 and rhinovirus 39 were titrated according to the tetrazolium salt (MTS)-method (Berg et al., 1990) (Hansen et al., 1989)). WISH cells were seeded in a micro tray at 3000 cells per well and incubated at 37° C., 5% CO2 overnight; the following morning the medium was replaced with 10-fold dilutions of either rhinovirus 1A, rhinovirus 15 or rhinovirus 39, respectively, in fresh medium and the trays were incubated 4-5 days at 33° C.; a microscopical examination confirmed that the CytoPathogenic Effect (CPE) was fully developed (CPE equal to 100%). The minimal amount of virus (i.e.: the highest dilution of the virus in question) which produced 100% destruction was used as “challenge virus” in the subsequent experiments. To quantitate the CPE in terms of % destruction, MTS (Berg and Owen, 2003) was added to all cultures and after 3 h incubation at 37° C. (without CO2) the trays were read in a scanner as previously described (Berg et al., 1990). […]
The results were graphed with the concentration of interferon on the horizontal scale and the OD492 readings on the vertical scale.

For `CC(C)[C@@H]1CC[C@@H](C)C[C@H]1O` [Menthol, levo-(−)-Menthol], the “increase in protection compared to virus controls receiving no menthol” value (rhinovirus T39) was about 50%, the protection against rhinovirus (RHV 1A, 17, and 39A) was “protection was seen” and the “potentiation of interferon antiviral activity (interferon curve+menthol versus interferon curve)” value (rhinovirus-T39; interferon range 0 to 8 units/ml, HRV T39, similar at 10^-2.5) was “specific potentiation”. For the same compound, the “protection compared to uninfected control cells” value (rhinovirus-T39; HRV T39 at 10^-2, IFN=0 units/ml, WISH cells, OD492 (FIG. 1A)) was 10-15%.
